Source: ChEMBL document CHEMBL3632485 (Eur J Med Chem, 2015)

Assays:
Carbonic anhydrase 9 = Carbonic anhydrase 9 (Homo sapiens, UniProt Q16790)
Description: Inhibition of human recombinant carbonic anhydrase 9 expressed in Escherichia coli preincubated for 6 hrs by stopped flow CO2 hydrase assay

Carbonic anhydrase 12 = Carbonic anhydrase 12 (Homo sapiens, UniProt O43570); assay: Inhibition of human recombinant carbonic anhydrase 12 expressed in Escherichia coli preincubated for 6 hrs by stopped flow CO2 hydrase assay
Carbonic anhydrase 1 = Carbonic anhydrase 1 (Homo sapiens, UniProt P00915); assay: Inhibition of human recombinant carbonic anhydrase 1 expressed in Escherichia coli preincubated for 6 hrs by stopped flow CO2 hydrase assay
Carbonic anhydrase 2 = Carbonic anhydrase 2 (Homo sapiens, UniProt P00918); assay: Inhibition of human recombinant carbonic anhydrase 2 expressed in Escherichia coli preincubated for 6 hrs by stopped flow CO2 hydrase assay

Sequence of Carbonic anhydrase 12 (O43570 whole entry): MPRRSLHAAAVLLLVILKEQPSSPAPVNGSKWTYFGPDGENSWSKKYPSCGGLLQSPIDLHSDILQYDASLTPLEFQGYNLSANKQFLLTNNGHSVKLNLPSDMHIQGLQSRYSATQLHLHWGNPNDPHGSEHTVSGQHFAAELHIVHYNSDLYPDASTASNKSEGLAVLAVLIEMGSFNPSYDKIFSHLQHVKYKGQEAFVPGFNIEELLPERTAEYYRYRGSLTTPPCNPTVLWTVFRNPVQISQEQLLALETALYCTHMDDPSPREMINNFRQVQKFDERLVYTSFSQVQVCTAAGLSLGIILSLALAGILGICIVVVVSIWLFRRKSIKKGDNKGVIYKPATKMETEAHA
Sequence of Carbonic anhydrase 1 (P00915 whole entry): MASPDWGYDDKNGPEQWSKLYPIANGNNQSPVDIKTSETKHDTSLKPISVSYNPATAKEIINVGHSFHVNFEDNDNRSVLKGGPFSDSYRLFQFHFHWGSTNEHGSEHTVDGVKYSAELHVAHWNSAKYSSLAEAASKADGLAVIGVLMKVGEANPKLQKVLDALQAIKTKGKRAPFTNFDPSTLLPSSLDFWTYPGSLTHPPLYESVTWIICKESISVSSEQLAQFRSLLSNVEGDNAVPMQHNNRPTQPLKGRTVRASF

SMILES | Ki (Carbonic anhydrase 9) | further results
NS(=O)(=O)c1ccc(-n2nc(C(=O)N/N=C3\C(=O)Nc4ccc(Br)cc43)cc2-c2ccccc2)cc1 | 20 nM | –
NS(=O)(=O)c1ccc(-n2ncc(C(=O)N/N=C3\C(=O)Nc4ccccc43)c2-c2ccccc2)cc1 | 52.9 nM | –
NS(=O)(=O)c1ccc(-n2ncc(C(=O)N/N=C3\C(=O)Nc4ccc(Br)cc43)c2-c2ccccc2)cc1 | 7.8 nM | –
NS(=O)(=O)c1ccc(-n2ncc(C(=O)N/N=C3\C(=O)N(Cc4ccccc4)c4ccccc43)c2-c2ccccc2)cc1 | – | Ki (Carbonic anhydrase 12): 6.5 nM
Nc1c(C(=O)N/N=C2\C(=O)Nc3ccccc32)cnn1-c1ccc(S(N)(=O)=O)cc1 | 2.8 nM | –
Nc1c(C(=O)N/N=C2\C(=O)Nc3ccc(Cl)cc32)cnn1-c1ccc(S(N)(=O)=O)cc1 | 2.5 nM | –
COc1ccc2c(c1)/C(=N/NC(=O)c1cnn(-c3ccc(S(N)(=O)=O)cc3)c1N)C(=O)N2 | 3.5 nM | –
Nc1c(C(=O)N/N=C2\C(=O)Nc3ccc([N+](=O)[O-])cc32)cnn1-c1ccc(S(N)(=O)=O)cc1 | 7.4 nM | Ki (Carbonic anhydrase 1): 70.4 nM; Ki (Carbonic anhydrase 12): 5.4 nM; Ki (Carbonic anhydrase 2): 23.1 nM

The remaining molecules from weak to strong by Ki (Carbonic anhydrase 9), led by results:

Ki (Carbonic anhydrase 9) | SMILES | further results
15.7 nM | NS(=O)(=O)c1ccc(-n2ncc(C(=O)N/N=C3\C(=O)Nc4ccc([N+](=O)[O-])cc43)c2-c2ccccc2)cc1 | –
9.7 nM | NS(=O)(=O)c1ccc(-n2ncc(C(=O)N/N=C3\C(=O)Nc4ccc(Cl)cc43)c2-c2ccccc2)cc1 | –
9.4 nM | Nc1c(C(=O)N/N=C2\C(=O)Nc3ccc(Br)cc32)cnn1-c1ccc(S(N)(=O)=O)cc1 | –
8.8 nM | NS(=O)(=O)c1ccc(-n2nc(C(=O)N/N=C3\C(=O)Nc4ccccc43)cc2-c2ccccc2)cc1 | –
7.4 nM | NS(=O)(=O)c1ccc(-n2nc(C(=O)N/N=C3\C(=O)Nc4ccc(Cl)cc43)cc2-c2ccccc2)cc1 | –
4.7 nM | Cc1ccc2c(c1)/C(=N/NC(=O)c1cc(-c3ccccc3)n(-c3ccc(S(N)(=O)=O)cc3)n1)C(=O)N2 | –
